Here are results for five compounds from patent publication EP2496579B1 (priority 2009, dated 2011).

Test [1] has as its target human α4β2 neuronal nicotinic receptor (Homo sapiens, UniProt P17787+P43681). Nature of the test: Neuronal nicotinic receptor (α-BGTX-insensitive) (agonist radioligand) binding assay. The note with it: test compound at 1 µmole; 0.6 nM [3H]cytisine; transfected SH-SY5Y cells; inhibition of control radioligand specific binding; one single experiment; read-out: % inhibition, N neuronal alpha-BGTX-insensitive (alpha4beta 2) (agonist radioligand). From the text:
(§1) Four illustrative compounds of this invention have each been tested at a concentration of 1 µmole in a series of 6 binding assays for various […], including dopaminic receptors, neuronal nicotinic receptors and muscular nicotinic receptors. Details of each binding assay procedure are given below.
Neuronal nicotinic receptor (α-BGTX-insensitive) (agonists radioligand):
The purpose is to evaluate the affinity of compounds for the human α4β2 neuronal nicotinic receptor expressed in transfected SH-SY5Y cells, determined in a radioligand binding assay according to Gopalakrishnan et al in J. Pharmacol. Exp. Ther. (1996) 276:289. The experimental protocol is as follows. Cell membrane homogenates (30 µg protein) are incubated for 120 min at 4°C with 0.6 nM [^3H]cytisine in the absence or presence of the test compound in a buffer containing 50 mM Tris-HCl (pH 7.4), 120 mM NaCl, 5 mM KCI, 2.5 mM CaCl2 and 1 mM MgCl2. Nonspecific binding is determined in the presence of 10 µM nicotine bitartrate. Following incubation, the samples are filtered rapidly under vacuum through glass fiber filters (GF/B, Packard) presoaked with 0.3% PEI and rinsed several times with ice-cold 50 mM Tris-HCl using a 96-sample cell harvester (Unifilter, Packard). The filters are dried then counted for radioactivity in a scintillation counter (Topcount, Packard) using a scintillation cocktail (Microscint 0, Packard). The results are expressed as a percent inhibition of the control radioligand specific binding. The standard reference compound is nicotine bitartrate, which is tested in each experiment at several concentrations to obtain a competition curve from which its IC50 is calculated, and from which the % inhibition at 1 µM as indicated in the following table is obtained.

Test [2] addresses T1, agonist site of the human dopamine D5 receptor (Homo sapiens, UniProt P21918).
T1 construct: expressed in transfected cells; host or cells: GH4 cells (membrane homogenates)
The experiment in a line: Human dopamine D5 receptor (agonist radioligand) binding assay. The note with it: test compound at 1 µmole; 7.5 nM [3H]dopamine; transfected GH4 cells; inhibition of control radioligand specific binding; one single experiment.
Description: as §1
Human dopamine D5 receptor (agonist radioligand):
The purpose is to evaluate the affinity of compounds for the agonist site of the human dopamine D5 receptor in transfected GH4 cells determined in a radioligand binding assay according to Sunahara et al in Nature (1991) 350:614. The experimental protocol is as follows. Cell membrane homogenates (120 µg protein) are incubated for 60 minutes at 22°C with 7.5 nM [^3H]dopamine in the absence or presence of the test compound in a buffer containing 20 mM Tris-HCl (pH 7.4), 5 mM MgCl2, 0.8 mM DTT, 0.3 mM ascorbic acid and 0.1 mM pyrocatechol. Nonspecific binding is determined in the presence of 10 µM SCH 23390. Following incubation, the samples are filtered rapidly under vacuum through glass fiber filters (GF/B, Packard) 55re-soaked with 0.3% PEI and rinsed several times with ice-cold 50 mM Tris-HCl using a 96-sample cell harvester (Unifilter, Packard). The filters are dried then counted for radioactivity in a scintillation counter (Topcount, Packard) using a scintillation cocktail (Microscint 0, Packard). The results are expressed as a percent inhibition of the control radioligand specific binding. The standard reference compound is dopamine, which is tested in each experiment at several concentrations to obtain a competition curve from which its IC50 is calculated, and from which the % inhibition at 1 µM as indicated in the following table is obtained.

Test [3] has as its target human α7 neuronal nicotinic receptor (Homo sapiens, UniProt P36544). The experiment in a line: biochemical. The format is binding. The note with it: read-out: % inhibition, N neuronal alpha -BGTX-sensitive (alpha 7) (antagonist radioligand).
The target of test [4] is human muscle-type nicotinic receptor (Homo sapiens, UniProt P02708+P07510+Q07001). Nature of the test: biochemical. In kind it is binding. The note with it: read-out: % inhibition, N muscle-type (h) (antagonist radioligand).
Sequence of human muscle-type nicotinic receptor (P02708 21-457): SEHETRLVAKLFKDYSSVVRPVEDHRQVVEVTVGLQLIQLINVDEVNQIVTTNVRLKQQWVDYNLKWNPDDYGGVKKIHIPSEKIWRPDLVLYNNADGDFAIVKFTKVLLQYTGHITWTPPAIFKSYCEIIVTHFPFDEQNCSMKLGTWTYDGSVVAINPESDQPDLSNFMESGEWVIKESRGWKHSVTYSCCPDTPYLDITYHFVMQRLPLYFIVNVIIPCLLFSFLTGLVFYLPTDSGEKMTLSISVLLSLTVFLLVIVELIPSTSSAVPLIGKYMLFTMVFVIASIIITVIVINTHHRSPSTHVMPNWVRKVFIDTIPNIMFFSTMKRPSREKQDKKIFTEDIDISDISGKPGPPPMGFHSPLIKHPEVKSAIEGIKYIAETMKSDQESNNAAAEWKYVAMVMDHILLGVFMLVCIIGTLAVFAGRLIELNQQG
Sequence of human muscle-type nicotinic receptor (P07510 23-517): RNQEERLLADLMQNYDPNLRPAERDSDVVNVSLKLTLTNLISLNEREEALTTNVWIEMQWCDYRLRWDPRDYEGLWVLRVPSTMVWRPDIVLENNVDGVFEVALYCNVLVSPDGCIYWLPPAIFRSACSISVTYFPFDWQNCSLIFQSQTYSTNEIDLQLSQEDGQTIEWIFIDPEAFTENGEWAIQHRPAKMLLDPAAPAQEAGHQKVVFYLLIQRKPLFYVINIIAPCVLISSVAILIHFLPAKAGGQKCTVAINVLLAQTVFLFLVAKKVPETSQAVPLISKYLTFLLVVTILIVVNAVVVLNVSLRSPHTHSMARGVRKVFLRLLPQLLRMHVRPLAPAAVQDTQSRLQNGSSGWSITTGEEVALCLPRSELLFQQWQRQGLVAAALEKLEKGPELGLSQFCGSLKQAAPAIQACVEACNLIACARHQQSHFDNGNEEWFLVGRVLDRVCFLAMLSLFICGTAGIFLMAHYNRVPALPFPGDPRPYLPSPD
Sequence of human muscle-type nicotinic receptor (P11230 24-501, further chain): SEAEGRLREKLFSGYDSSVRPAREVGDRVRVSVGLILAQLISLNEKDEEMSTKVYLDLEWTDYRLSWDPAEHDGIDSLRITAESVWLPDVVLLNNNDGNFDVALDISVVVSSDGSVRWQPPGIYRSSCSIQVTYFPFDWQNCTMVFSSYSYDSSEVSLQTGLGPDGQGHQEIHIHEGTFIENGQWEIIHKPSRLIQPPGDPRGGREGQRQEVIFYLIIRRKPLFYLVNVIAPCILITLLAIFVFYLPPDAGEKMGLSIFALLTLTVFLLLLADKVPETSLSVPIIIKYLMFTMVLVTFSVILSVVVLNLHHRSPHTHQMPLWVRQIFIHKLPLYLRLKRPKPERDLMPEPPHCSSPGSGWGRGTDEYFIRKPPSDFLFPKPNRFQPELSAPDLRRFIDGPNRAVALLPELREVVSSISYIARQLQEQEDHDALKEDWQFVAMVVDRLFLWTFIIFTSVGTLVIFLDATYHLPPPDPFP
Sequence of human muscle-type nicotinic receptor (Q07001 22-517): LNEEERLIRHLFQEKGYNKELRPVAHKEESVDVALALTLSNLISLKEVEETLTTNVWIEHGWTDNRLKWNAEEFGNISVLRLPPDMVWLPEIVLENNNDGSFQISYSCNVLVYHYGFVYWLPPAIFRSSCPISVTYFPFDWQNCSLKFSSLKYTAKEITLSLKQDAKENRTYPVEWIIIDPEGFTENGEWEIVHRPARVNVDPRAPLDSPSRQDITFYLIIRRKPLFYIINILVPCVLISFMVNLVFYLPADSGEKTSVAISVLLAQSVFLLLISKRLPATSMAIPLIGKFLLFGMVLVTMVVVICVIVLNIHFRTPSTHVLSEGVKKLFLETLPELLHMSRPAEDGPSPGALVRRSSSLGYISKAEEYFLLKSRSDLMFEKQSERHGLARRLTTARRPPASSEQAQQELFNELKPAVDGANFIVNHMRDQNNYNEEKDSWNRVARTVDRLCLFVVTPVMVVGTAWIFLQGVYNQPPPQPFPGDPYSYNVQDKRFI
The target in test [5] is T2, human dopamine D1 receptor (Homo sapiens, UniProt P21728).
T2 construct: expressed in transfected cells; host or cells: CHO cells (membrane homogenates)
T2 sequence (P21728 whole entry): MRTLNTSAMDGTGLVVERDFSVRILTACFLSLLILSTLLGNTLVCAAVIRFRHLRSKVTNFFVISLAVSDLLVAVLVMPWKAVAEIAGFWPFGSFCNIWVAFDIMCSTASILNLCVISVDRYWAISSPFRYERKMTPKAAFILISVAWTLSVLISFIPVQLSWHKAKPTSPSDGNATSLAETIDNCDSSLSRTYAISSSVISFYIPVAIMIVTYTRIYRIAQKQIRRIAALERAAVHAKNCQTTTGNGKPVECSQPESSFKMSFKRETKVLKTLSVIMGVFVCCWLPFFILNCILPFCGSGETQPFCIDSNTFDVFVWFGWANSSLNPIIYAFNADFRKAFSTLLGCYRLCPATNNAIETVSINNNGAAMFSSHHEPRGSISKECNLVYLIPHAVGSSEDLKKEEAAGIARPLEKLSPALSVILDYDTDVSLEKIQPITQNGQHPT
Nature of the test: Human dopamine D1 receptor (antagonist radioligand) binding assay. As to conditions: test compound at 1 µmole; 0.3 nM [3H]SCH 23390; transfected CHO cells; inhibition of control radioligand specific binding; one single experiment.
Description: as §1
Human dopamine D1 receptor (antagonist radioligand):
The purpose is to evaluate the affinity of compounds for the human dopamine D1 receptor in transfected CHO cells determined in a radioligand binding assay according to Zhou et al in Nature (1990) 347:76. The experimental protocol is as follows. Cell membrane homogenates (48 µg protein) are incubated for 60 minutes at 22°C with 0.3 nM [^3H]SCH 23390 in the absence or presence of the test compound in a buffer containing 50 mM Tris-HCl (pH 7.4), 5 mM KCI, 5 mM MgCl2, 1.5 mM CaCl2 and 5 mM EDTA. Non-specific binding is determined in the presence of 1 µM SCH 23390. […] The filters are dried then counted for radioactivity in a scintillation counter (Topcount, Packard) using a scintillation cocktail (Microscint 0, Packard). The results are expressed as a percent inhibition of the control radioligand specific binding. […]

The target of test [6] is T3, Human dopamine D5 receptor (Homo sapiens, UniProt P21918).
T3 construct: expressed in transfected cells; host or cells: GH4 cells (membrane homogenates)
T3 sequence (P21918 whole entry): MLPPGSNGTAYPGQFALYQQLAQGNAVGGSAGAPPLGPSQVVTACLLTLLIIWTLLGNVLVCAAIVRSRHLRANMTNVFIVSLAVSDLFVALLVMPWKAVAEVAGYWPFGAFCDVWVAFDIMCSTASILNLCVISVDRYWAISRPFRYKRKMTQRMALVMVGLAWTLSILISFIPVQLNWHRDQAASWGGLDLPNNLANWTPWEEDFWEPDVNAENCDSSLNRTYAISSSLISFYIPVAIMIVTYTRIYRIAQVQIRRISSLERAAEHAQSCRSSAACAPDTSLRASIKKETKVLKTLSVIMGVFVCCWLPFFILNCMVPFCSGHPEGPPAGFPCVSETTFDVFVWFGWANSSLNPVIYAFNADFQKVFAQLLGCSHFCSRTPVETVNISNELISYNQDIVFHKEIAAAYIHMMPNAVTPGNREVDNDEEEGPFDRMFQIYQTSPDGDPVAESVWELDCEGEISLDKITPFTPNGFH
The experiment in a line: Human dopamine D5 receptor (antagonist radioligand) binding assay. As to conditions: test compound at 1 µmole; 0.3 nM [3H]SCH 23390; transfected GH4 cells; inhibition of control radioligand specific binding; one single experiment.
Description: as §1
Human dopamine D5 receptor (antagonist radioligand):
The purpose is to evaluate the affinity of compounds for the human dopamine […] in transfected GH4 cells determined in a radioligand binding assay according to Sunahara et al in Nature (1991) 350:614. The experimental protocol is as follows. Cell membrane homogenates (20 µg protein) are incubated for 60 minutes at 22°C with 0.3 nM [^3H]SCH 23390 in the absence or presence of the test compound in a buffer containing 50 mM Tris-HCl (pH 7.4), 120 mM NaCl, 5 mM KCI, 5 mM MgCl2 and 1 mM EDTA. Nonspecific binding is determined in the presence of 10 µM SCH 23390. […] The filters are dried then counted for radioactivity in a scintillation counter (Topcount, Packard) using a scintillation cocktail (Microscint 0, Packard). The results are expressed as a percent inhibition of the control radioligand specific binding. […]

The conditions of test [7]: relative to morphine; background statement; cited from earlier work.

Each structure is given as a SMILES string.

T1 sequence (P21918 whole entry): as above
Sequence of human α7 neuronal nicotinic receptor (P36544 23-502): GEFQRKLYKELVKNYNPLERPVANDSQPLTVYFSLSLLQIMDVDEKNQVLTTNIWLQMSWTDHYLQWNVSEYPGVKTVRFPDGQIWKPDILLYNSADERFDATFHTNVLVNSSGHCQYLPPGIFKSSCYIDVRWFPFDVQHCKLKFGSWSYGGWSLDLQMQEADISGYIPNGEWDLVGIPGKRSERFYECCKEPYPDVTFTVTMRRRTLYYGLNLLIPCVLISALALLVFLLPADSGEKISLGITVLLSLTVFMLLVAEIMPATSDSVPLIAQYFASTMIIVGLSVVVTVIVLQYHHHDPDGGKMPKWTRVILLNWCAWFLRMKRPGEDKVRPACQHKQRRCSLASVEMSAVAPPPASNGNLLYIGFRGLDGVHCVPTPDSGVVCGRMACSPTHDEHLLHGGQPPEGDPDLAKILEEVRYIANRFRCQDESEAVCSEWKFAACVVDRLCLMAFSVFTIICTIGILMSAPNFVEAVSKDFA
Sequence of human α4β2 neuronal nicotinic receptor (P43681 29-627 limits assumed): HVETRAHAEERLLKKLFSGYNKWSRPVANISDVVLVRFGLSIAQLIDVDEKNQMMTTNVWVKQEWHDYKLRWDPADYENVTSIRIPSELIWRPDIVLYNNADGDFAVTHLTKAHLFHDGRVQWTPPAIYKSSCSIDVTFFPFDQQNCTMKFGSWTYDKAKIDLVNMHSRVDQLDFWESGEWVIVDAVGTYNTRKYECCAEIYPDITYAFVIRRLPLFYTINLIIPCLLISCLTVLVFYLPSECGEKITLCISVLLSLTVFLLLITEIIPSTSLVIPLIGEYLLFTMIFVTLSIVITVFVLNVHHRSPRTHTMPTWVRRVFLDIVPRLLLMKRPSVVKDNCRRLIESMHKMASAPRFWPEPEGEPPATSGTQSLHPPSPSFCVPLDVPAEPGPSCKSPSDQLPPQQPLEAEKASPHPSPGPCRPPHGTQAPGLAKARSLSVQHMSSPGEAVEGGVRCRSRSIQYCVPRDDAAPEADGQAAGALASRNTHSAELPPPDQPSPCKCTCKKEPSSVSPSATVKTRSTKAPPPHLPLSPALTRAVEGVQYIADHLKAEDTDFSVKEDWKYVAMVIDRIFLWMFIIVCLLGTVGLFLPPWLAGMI
Sequence of human α4β2 neuronal nicotinic receptor (P17787 26-502): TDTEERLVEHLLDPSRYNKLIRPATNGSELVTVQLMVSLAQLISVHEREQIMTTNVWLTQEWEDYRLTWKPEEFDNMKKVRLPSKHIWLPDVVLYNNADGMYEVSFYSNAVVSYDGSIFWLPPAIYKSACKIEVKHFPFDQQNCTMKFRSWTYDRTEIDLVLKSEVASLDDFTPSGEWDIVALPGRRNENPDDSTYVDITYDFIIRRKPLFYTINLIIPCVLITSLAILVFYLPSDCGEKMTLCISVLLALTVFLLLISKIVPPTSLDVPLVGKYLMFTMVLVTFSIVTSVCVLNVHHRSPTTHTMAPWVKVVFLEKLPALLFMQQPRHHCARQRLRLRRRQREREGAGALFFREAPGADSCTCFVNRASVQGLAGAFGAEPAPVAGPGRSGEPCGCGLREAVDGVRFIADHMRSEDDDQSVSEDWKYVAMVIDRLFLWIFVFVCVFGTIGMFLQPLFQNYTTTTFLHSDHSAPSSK

A word on the inhibition: it is the change of the read-out against control, counted positive when it falls. In the case of `CCN1CCC2CC1(C(=O)c1ccc(Cl)nc1)C2` [Comp.9m], the inhibition at 1 µM in test [1] is 4%; in test [2], -13%. For the same compound, in test [3], the inhibition at 50 pM was -1%. Moreover, the inhibition at 0.0005 µM in test [4] is -8%.
`OC(c1cccnc1)C12CC(CCN1)C2` (stereo not drawn) [Comp.11]: in test [3], the inhibition at 50 pM is -1%. In test [4], the inhibition at 0.0005 µM stood at 17%.
With `CCN1CCC2CC1(C(O)c1cccnc1)C2` (stereo not drawn) [Comp.19a], the inhibition at 1 µM was 9% in test [5], 24% in test [1] and -2% in test [2]. The inhibition at 50 pM in test [3] stood at 3%. In test [4], the inhibition at 0.0005 µM is 33%.
In the case of `NCC12CC(CCN1Cc1ccccn1)C2` [Comp.20], the inhibition at 1 µM was -3% in test [5], 31% in test [6], 11% in test [1] and 6% in test [2]. For the same compound, the inhibition at 50 pM in test [3] was 12%. Further, in test [4], the inhibition at 0.0005 µM came to 32%.
For `Clc1ccc(C2CC3CCC2N3)cn1` (stereo not drawn) [epibatidine], the “analgesic potency, higher than that of morphine” value in test [7] is reported as “about 200 fold”.
